Measured values as given in US10716869B2, “Radiolabeled macrocyclic EGFR inhibitor” (Oncodesign SA, priority 2016, dated 2020).

Tests used:
[1] = molecular target: T1, NCI-H441 tumor cell homogenates (activated EGFR) (Homo sapiens, UniProt P00533); test: binding competition on tumor cell homogenates
T1 construct: endogenous in cells; host or cells: NCI-H441
Description: (§1) FIG. 1: Binding affinity constant of Compound (II) determined in competition experiments on NCI-H3255 (A) and NCI-H441 (B) cell line extracts. NCI-H3255 and NCI-H441 cell line extracts were incubated at room temperature for 90 min with Compound (II) (0.5-0.7 nM) and with increasing concentrations of Compound (IIa) (0.05 nM to 10 μM).
(§2) The binding affinity of Compound (I) and the number of binding sites were first evaluated on NCI-H3255 and NCI-H441 tumor cell homogenates (FIG. 1). […] The number of binding sites was of the same order of magnitude (6.1±0.5×10^9 sites/μg protein).

[2] = molecular target: T2, NCI-H3255 tumor cell homogenates (activated EGFR) (Homo sapiens, UniProt P00533, L858R); test: binding competition on tumor cell homogenates
T2 construct: endogenous in cells; host or cells: NCI-H3255
T2 sequence (P00533 25-1210 L858R): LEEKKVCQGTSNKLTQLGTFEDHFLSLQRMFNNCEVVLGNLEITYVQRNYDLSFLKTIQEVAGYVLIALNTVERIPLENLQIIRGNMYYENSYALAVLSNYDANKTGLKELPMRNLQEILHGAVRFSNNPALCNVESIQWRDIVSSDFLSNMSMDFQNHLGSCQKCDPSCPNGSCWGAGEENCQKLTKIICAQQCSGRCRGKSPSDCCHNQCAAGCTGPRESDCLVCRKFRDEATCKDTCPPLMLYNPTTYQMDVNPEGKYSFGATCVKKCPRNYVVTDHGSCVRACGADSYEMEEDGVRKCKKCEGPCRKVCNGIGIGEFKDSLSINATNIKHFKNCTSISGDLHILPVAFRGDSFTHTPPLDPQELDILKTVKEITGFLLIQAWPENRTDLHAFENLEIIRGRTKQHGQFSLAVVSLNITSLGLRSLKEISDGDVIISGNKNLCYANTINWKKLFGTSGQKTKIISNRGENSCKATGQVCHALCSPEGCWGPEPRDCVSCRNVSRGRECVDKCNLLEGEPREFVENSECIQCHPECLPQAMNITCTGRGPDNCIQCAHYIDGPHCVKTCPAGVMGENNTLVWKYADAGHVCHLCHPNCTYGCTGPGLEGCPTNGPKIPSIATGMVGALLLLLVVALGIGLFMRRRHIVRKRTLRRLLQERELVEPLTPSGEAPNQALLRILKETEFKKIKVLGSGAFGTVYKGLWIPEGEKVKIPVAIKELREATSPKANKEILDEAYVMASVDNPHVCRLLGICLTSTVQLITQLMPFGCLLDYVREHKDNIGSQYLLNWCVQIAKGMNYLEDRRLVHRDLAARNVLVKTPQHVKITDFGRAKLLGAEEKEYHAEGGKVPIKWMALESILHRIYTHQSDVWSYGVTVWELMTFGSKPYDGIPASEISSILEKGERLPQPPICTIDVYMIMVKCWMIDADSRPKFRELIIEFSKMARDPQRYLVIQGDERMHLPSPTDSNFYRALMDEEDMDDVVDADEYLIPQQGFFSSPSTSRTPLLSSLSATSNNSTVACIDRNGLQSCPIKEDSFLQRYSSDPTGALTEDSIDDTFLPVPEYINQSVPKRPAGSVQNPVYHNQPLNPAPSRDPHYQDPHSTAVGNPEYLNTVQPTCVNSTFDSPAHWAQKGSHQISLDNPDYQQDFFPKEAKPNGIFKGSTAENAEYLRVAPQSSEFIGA
Description: as §1, §2

[3] = radiochemical stability in vehicle by HPLC; format: physicochemical; conditions: room temperature, vehicle physiologic serum/ethanol 87.5/12.5
Description: By this method, the final radiolabeled compound can be obtained with a radiochemical purity greater than 98% in 100-110 min with a yield that can reach 25% (decay corrected). It has been noticed that an uncompleted evaporation of the solvents used for the purification of [^18F]Fluoroethyltosylate hampers the second step and conducts to lower yields. Specific activity of productions was in the range of […]. The radiolabeled compound is stable in the conditions of formulation as radiochemical purity still greater than 95% 20 h after production with a storage at room temperature.
After radiosynthesis, the stability of the radiotracer was evaluated by HPLC both in its vehicle and in rat plasma. Compound (I) was formulated in physiologic serum/ethanol with the respective proportion 87.5/12.5 (v/v). A mixture of compounds (I) (i.e. radiolabelled) and (Ia) (i.e. cold analogue) was stable for up to 20 hours at room temperature in its vehicle, only one peak being detected at the expected retention time. In rat plasma two peaks were detected: one at 3.15 minutes and one at 8.02 minutes (corresponding to a mixture of compounds (I) and (Ia)) after an incubation at +37° C. for 4 hours.

[4] = molecular target: T3, NCI-H1975 tumor homogenates (activated EGFR) (Homo sapiens, UniProt P00533, L858R/T790M); test: binding competition and binding kinetic on tumor homogenates
T3 construct: from tissue; host or cells: NCI-H1975 tumor homogenate
T3 sequence (P00533 25-1210 T790M/L858R): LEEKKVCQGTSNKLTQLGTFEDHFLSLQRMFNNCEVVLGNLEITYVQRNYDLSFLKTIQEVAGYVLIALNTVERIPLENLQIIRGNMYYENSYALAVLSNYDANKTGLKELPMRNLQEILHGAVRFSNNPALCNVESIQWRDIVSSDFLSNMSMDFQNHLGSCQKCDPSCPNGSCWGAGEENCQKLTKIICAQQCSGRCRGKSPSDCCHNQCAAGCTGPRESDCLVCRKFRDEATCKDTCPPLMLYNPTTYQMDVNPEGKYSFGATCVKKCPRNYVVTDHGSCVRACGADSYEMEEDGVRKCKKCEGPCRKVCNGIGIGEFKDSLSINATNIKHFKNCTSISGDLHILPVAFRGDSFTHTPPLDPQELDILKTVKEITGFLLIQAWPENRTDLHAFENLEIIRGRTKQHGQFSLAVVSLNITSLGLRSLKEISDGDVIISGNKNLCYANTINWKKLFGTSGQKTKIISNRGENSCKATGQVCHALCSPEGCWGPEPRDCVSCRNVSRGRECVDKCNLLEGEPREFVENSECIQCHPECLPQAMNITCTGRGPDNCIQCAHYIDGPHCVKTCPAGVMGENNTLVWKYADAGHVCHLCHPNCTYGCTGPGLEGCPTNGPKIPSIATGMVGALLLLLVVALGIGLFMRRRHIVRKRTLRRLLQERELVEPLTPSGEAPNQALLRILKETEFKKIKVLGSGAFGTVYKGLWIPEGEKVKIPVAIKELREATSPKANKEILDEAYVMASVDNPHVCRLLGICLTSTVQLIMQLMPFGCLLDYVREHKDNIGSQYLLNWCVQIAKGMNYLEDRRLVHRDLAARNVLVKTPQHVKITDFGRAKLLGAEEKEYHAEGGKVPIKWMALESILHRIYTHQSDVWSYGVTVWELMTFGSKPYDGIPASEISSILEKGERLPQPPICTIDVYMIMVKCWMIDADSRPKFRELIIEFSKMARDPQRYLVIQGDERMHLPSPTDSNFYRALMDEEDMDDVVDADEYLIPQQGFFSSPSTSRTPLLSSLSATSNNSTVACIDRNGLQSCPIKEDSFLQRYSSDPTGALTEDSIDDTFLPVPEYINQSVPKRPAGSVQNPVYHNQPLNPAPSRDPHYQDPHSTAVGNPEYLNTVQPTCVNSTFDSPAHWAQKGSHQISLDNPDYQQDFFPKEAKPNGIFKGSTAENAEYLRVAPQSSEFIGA
Description: (§3) FIG. 2: Binding affinity constant of Compound (II) determined in competition experiments on NCI-H3255 (A) and NCI-H1975 (B) tumor extracts. NCI-H3255 and NCI-H1975 tumor extracts were incubated at room temperature for 90 min with Compound (II) (0.1-0.3 nM) and with increasing concentrations of Compound (IIa) (0.25 nM to 1 μM).
(§4) FIG. 3: Binding kinetic of Compound (II) evaluated on NCI-H3255 (A) and NCI-H1975 (B) tumor extracts. Compound (II) (1.5-2.5 nM) was incubated with extracts for 2 to 90 minutes at room temperature. Non-specific binding was evaluated in the presence of a>100 fold excess Compound (IIa).
(§5) Similar experiments were performed on NCI-H3255 and NCI-H1975 tumor homogenates (FIG. 2). […] The number of binding sites was 1.1±1.5×10^9 and 1.6±1.8×10^9 sites/μg protein respectively in NCI-H3255 and NCI-H1975 tumor homogenates.
(§6) The binding kinetic of Compound (I) was also assessed in NCI-H3255 and NCI-H1975 tumor homogenates (FIG. 3).

[5] = molecular target: T4, NCI-H3255 tumor homogenates (activated EGFR) (Homo sapiens, UniProt P00533, L858R); test: as above
T4 construct: from tissue; host or cells: NCI-H3255 tumor homogenate
T4 sequence (P00533 25-1210 L858R): as the sequence (P00533 25-1210 L858R) above
Description: as §3, §4, §5, §6

[6] = biodistribution in tumor-bearing Nude rats (ex vivo gamma counting)
Description: Dynamic PET scan imaging and ex vivo gamma counting were performed on three cancer xenografts (NCI-H441, NCI-H3255, NCI-H1975) in Nude rats. Xenografts were initiated in athymic, Hsd:RH-Foxnlrnu rats (Harlan, The Netherlands) by subcutaneous injection of 2×10^7 cells in 200 μL RPMI 1640 in the left and right flanks. NCI-H3255 tumor cells were injected in the right flank and NCI-H441 or NCI-H1975 in the left flank. Each study consisted in two experiments on 18 or 19 rats, for a total of 113 rats. Injection of NCI-H3255 cells was performed on DO, 24 to 72 hours after a whole-body irradiation with a […] (5 Gy, ^60Co, BioMep SARL, Bretenières, France). […]
The radiotracer solution was diluted in NaCl 0.9% to prepare a solution of activity 4-6 MBq (gamma-counting experiments) or 25-35 MBq (PET imaging experiments) in a volume of 300-400 or 600-800 μL, respectively. The radioactivity in the syringe was measured before and after tracer injection to determine the injected dose (ID) to animals. […]
For ex vivo gamma counting, after the determined uptake period or after imaging, rats were euthanized by decapitation, and the following organs were harvested and weighed: tumor, kidneys, blood, liver, heart, tail, thigh muscle, lungs, spleen and skin. Tracer distribution was assessed by determining ^18F content in each tissue with a gamma-well counter (PerkinElmer 2480 Wizard2 3). […]

[7] = read-out: binding affinity (Kd)
[8] = read-out: dissociation constant (Koff) (converted)

T1 sequence (P00533 25-1210): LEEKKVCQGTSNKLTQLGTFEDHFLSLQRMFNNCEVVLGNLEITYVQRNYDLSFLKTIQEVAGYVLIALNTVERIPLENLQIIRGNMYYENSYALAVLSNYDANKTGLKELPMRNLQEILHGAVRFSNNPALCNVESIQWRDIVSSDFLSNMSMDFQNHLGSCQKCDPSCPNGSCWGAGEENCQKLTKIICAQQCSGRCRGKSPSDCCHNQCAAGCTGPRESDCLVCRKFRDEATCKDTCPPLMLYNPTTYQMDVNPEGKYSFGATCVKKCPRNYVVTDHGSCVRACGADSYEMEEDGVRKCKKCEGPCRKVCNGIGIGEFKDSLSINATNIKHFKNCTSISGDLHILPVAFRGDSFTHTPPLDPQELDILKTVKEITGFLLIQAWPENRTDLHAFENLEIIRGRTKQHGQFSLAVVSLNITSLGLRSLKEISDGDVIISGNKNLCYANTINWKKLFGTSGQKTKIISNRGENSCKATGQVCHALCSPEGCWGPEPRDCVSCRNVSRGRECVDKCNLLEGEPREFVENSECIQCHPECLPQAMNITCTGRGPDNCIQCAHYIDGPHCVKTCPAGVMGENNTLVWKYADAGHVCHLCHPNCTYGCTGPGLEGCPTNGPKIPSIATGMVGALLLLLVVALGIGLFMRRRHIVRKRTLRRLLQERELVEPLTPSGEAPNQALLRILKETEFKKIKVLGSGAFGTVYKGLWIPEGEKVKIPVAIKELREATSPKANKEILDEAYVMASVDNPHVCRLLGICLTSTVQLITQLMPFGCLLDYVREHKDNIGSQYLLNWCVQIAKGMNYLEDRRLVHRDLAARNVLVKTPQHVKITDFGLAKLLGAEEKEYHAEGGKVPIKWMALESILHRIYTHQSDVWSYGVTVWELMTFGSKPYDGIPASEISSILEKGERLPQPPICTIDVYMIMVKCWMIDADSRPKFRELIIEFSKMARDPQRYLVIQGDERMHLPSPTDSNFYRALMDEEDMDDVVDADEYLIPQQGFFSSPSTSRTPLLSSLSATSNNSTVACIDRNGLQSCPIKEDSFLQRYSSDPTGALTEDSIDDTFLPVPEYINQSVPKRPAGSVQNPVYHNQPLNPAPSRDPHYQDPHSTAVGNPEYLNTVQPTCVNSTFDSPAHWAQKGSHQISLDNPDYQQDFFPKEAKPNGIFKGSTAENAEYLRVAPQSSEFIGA

In the case of `CC(C)C1NC(=O)Cc2ccc(Cl)cc2Nc2ncnc3cc(OCC[18F])c(cc23)OCCCNC1=O` (stereo not shown) [Compound (I)], the “number of binding sites” value [1] is reported as 6.1±0.5×10^9 sites/μg protein, the Kd [1, 7] is reported as 25.8 ± 11.1 nM and the “number of binding sites” value [2] is reported as 9.1±3.1×10^9 sites/μg protein. For the same compound, the Kd [2, 7] was 23.8 ± 9 nM, the Radiochemical stability [3] was >20 h and the “number of binding sites” value [4] was 1.6±1.8×10^9 sites/μg protein. The Kd ([4]; read-out: binding affinity) was 4.7 ± 2 nM, the koff [4, 8] was 0.0045 s⁻¹ and the “number of binding sites” value [5] was 1.1±1.5×10^9 sites/μg protein. For the same compound, the Kd ([5]; read-out: binding affinity) was 2.8 ± 2.4 nM, the koff [5, 8] was 0.0019 s⁻¹ and the uptake in blood ([6]; after 45 min) was < 0.05 % ID/g. For the same compound, the “absolute uptake in tumors” value ([6]; at 90 min) was < 0.5 % ID/g.
